Measured values: US10898469B2, “Imidazolylamide derivative” (Sumitomo Dainippon Pharma Co., Ltd., priority 2016, dated 2021)
Structures can show the parent of a compound that is named as a salt. Where two headings read alike, the source gives them in different places.

Experiments:
Format in all cases: cell-based, human
HT-29 cells = assay: Inhibition test for sphere-forming ability of cancer cells (Test Example 1), HT-29; conditions: for IC50: concentration for 50% inhibition of cell proliferation, read-out: IC50 (μmol/L) HT-29 (Sphere IC50 value); for viability at 1 µM: read-out: (100%-inhibition rate of cell proliferation) at 1 μmol/L, 1 μmol/L, value with %; for (100%-inhibition rate of cell proliferation) at 1 μmol/L, HT-29: value with %
Description: (§1) The reliable methods established for measuring the self-renewal ability of cells which is one of the CSC's properties include a method for measuring the sphere-forming ability of cancer cells in non-adherent condition in the absence of serum (Cancer Res 65, 5506-5511 (2005)). Human colorectal cancer-derived HCT-116 cells, human colon-adenocarcinoma-derived HT-29 cells, and human pharyngeal cancer-derived FaDu cells were available from American Type Culture Collection (ATCC). HCT-116 cells and HT-29 cells were cultured at 37° C. under 5% CO2 using the McCoy's 5a medium containing 10% fetal bovine serum (FBS) and 1% penicillin/streptomycin, and FaDu cells were cultured at 37° C. under 5% CO2 using the MEM medium containing 10% FBS, 1% non-essential amino acid, 1% sodium pyruvate, and 1% penicillin/streptomycin. HCT-116 cells, HT-29 cells, and FaDu cells were seeded in a 384 Well Black Clear Bottom Ultra-Low Attachment Microplate (Corning Cat. No. 3827) in an amount of 350-800 cells/well using the DMEM/F12 medium containing 2% B27 supplement (GIBCO), 20 ng/mL epidermal growth factor (EGF) (peprotech), 10 ng/mL basic fibroblast growth factor (bFGF) (peprotech), 5 μg/mL insulin (Sigma), and 1% penicillin/streptomycin. Each test compound was added into each well to adjust the final concentration of DMSO to 0.1%, and the cells were cultured for 4 days. The number of viable cells in each well was then measured with CellTiter-Glo® Luminescent Cell Viability Assay (Promega) to calculate the concentration of each test compound for 50% inhibition of cell proliferation (Sphere IC50 value; μmol/L).
(§2) The experiment of Test Example 1 was performed for each compound of each Example. The concentration of each test compound for 50% inhibition of cell proliferation (Sphere IC50 value; μmol/L) is shown in the following Table.

HCT-116 cells = assay: Inhibition test for sphere-forming ability of cancer cells (Test Example 1), HCT-116; conditions: HCT-116 cells; for IC50: concentration for 50% inhibition of cell proliferation, read-out: IC50 (μmol/L) HCT-116 (Sphere IC50 value); for viability at 1 µM: read-out: (100%-inhibition rate of cell proliferation) at 1 μmol/L; for viability at 1 µM / (100%-inhibition rate of cell proliferation) at 1 μmol/L, HCT-116: 1 μmol/L, value with %
Description: as §1, §2

FaDu cells = assay: Inhibition test for sphere-forming ability of cancer cells (Test Example 1), FaDu; conditions: for IC50: concentration for 50% inhibition of cell proliferation, read-out: IC50 (μmol/L) FaDu (Sphere IC50 value); for viability at 1 µM: read-out: (100%-inhibition rate of cell proliferation) at 1 μmol/L, 1 μmol/L, value with %; for (100%-inhibition rate of cell proliferation) at 1 μmol/L, FaDu: value with %
Description: as §1, §2

Row | IC50 (HT-29 cells) | IC50 (HCT-116 cells) | IC50 (FaDu cells) | IC50 (HT-29 cells; Homo sapiens) | IC50 (HCT-116 cells; Homo sapiens) | SMILES | further results
1 | 8 µmol/L | 9.06 µmol/L | – | – | – | O=C(Nc1cn(Cc2cccc(C(F)(F)F)c2)cn1)c1cnc(Br)c(F)c1 [Example 227] | –
2 | 4.81 µmol/L | > 10 µmol/L | 9.74 µmol/L | – | – | O=C(Nc1cn(Cc2cccc(OC(F)(F)F)c2)cn1)c1ccc(OCC(F)(F)F)nc1 [Example 222] | –
3 | 3.78 µmol/L | 0.76 µmol/L | 0.89 µmol/L | – | – | O=C(Nc1cn(Cc2cccc(Cl)c2)cn1)c1ccc(-n2cccn2)nc1 [Example 196] | –
4 | 9.07 µmol/L | 8.16 µmol/L | – | – | – | O=C(Nc1cn(Cc2cccc(C(F)(F)F)c2)cn1)c1ccc2ncccc2n1 [Example 184] | –
5 | 6.12 µmol/L | 3.82 µmol/L | 0.76 µmol/L | – | – | O=C(/C=C/c1ccc(O)c(F)c1)Nc1cn(Cc2cccc(Cl)c2)cn1 [Example 81] | –
6 | 0.52 µmol/L | 0.59 µmol/L | 0.68 µmol/L | – | – | O=C(/C=C/c1ccc(O)cc1)Nc1cn(Cc2cccc(Cl)c2)cn1 [Example 84] | –
7 | 5.53 µmol/L | 2.37 µmol/L | 5.14 µmol/L | – | – | O=C(/C=C/c1ccco1)Nc1cn(Cc2cccc(Cl)c2)cn1 [Example 87] | –
8 | 7.87 µmol/L | 8.17 µmol/L | 6.32 µmol/L | – | – | O=C(/C=C/c1c[nH]cn1)Nc1cn(Cc2cccc(Cl)c2)cn1 [Example 90] | –
9 | – | – | – | 8.77 µmol/L | 3.84 µmol/L | O=C(/C=C/c1cc(O)ccc1O)Nc1cn(Cc2cccc(C(F)(F)F)c2)cn1 [Example 235, (2E)-3-(2,5-Dihydroxyphenyl)-N-{1-[3-(trifluoromethyl)benzyl]-1H-imidazol-4-yl}prop-2-enamide Hydrochloride] | –
10 | – | – | – | 0.94 µmol/L | 5.05 µmol/L | Cc1cccc(/C=C/C(=O)Nc2cn(Cc3cccc(C(F)(F)F)c3)cn2)c1 [Example 105] | IC50 (FaDu cells; Homo sapiens): 0.85 µmol/L
11 | – | – | – | 6.65 µmol/L | 7.05 µmol/L | O=C(/C=C/c1ccc(O)c(O)c1)Nc1cn(Cc2cccc(Cl)c2)cn1 [Example 21, (E)-N-(1-(3-Chlorobenzyl)-1H-imidazol-4-yl)-3-(3,4-dihydroxyphenyl)acrylamide] | IC50 (FaDu cells; Homo sapiens): 0.66 µmol/L
12 | – | – | – | – | – | COCCOc1ccc(C(=O)Nc2cn(Cc3cccc(Cl)c3)cn2)cn1 [Example 244, N-[1-(3-Chlorobenzyl)-1H-imidazol-4-yl]-6-(2-methoxyethoxy)nicotinamide] | viability at 1 µM (HT-29 cells; Homo sapiens): 27%; viability at 1 µM (HCT-116 cells; Homo sapiens): 46.7%; viability at 1 µM (FaDu cells; Homo sapiens): 36.7%
13 | 6.62 µmol/L | 5.74 µmol/L | 4.5 µmol/L | – | – | O=C(/C=C/c1cccc(Br)c1)Nc1cn(Cc2cccc(Cl)c2)cn1 [Example 56] | –
14 | – | – | – | 0.02 µmol/L | 0.32 µmol/L | CCOc1ccc(/C=C/C(=O)Nc2cn(Cc3cccc(Cl)c3)cn2)cn1 [Example 1, (E)-N-(1-(3-Chlorobenzyl)-1H-imidazol-4-yl)-3-(6-ethoxypyridin-3-yl)acrylamide] | IC50 (FaDu cells; Homo sapiens): 0.05 µmol/L
15 | – | – | – | – | – | COc1ccc(C(=O)Nc2cn(Cc3cccc(Oc4ccccc4)c3)cn2)cc1OC [Example 297] | (100%-inhibition rate of cell proliferation) at 1 μmol/L, HT-29 (HT-29 cells): 33.7%; (100%-inhibition rate of cell proliferation) at 1 μmol/L, HCT-116 (HCT-116 cells): 56.6%; (100%-inhibition rate of cell proliferation) at 1 μmol/L, FaDu (FaDu cells): 31.4%
16 | – | – | – | – | – | CCCCOc1ccc(C(=O)Nc2cn(Cc3cccc(Cl)c3)cn2)cn1 [Example 135] | (100%-inhibition rate of cell proliferation) at 1 μmol/L, HT-29 (HT-29 cells): 28.0%; (100%-inhibition rate of cell proliferation) at 1 μmol/L, HCT-116 (HCT-116 cells): 31.8%; (100%-inhibition rate of cell proliferation) at 1 μmol/L, FaDu (FaDu cells): 25.0%
17 | 6.34 µmol/L | 7.31 µmol/L | 8.9 µmol/L | – | – | O=C(/C=C/c1ccc(F)cc1Br)Nc1cn(Cc2cccc(Cl)c2)cn1 [Example 78] | –
18 | – | – | – | 0.49 µmol/L | 0.85 µmol/L | O=C(Nc1cn(Cc2cccc(Cl)c2)cn1)/C(F)=C/c1cccnc1 [Example 43, (Z)—N-(1-(3-Chlorobenzyl)-1H-imidazol-4-yl)-2-fluoro-3-(pyridin-3-yl)acrylamide] | IC50 (FaDu cells; Homo sapiens): 0.69 µmol/L
19 | – | – | – | 0.66 µmol/L | 0.79 µmol/L | Cc1cccc(/C=C/C(=O)Nc2cn(Cc3c(F)ccc(C)c3F)cn2)c1 [Example 115] | IC50 (FaDu cells; Homo sapiens): 0.79 µmol/L

Row | IC50 (HT-29 cells) | IC50 (HCT-116 cells) | IC50 (FaDu cells) | IC50 (HT-29 cells; Homo sapiens) | IC50 (HCT-116 cells; Homo sapiens) | SMILES | further results
20 | – | – | – | 0.75 µmol/L | 2.65 µmol/L | O=C(/C=C/c1cccnc1)Nc1cn(Cc2cccc(OC(F)(F)F)c2)cn1 [Example 109] | IC50 (FaDu cells; Homo sapiens): 0.67 µmol/L
21 | 0.71 µmol/L | 0.9 µmol/L | 0.9 µmol/L | – | – | CCOc1ccc(C(=O)Nc2cn(Cc3cccc(Cl)c3)cn2)cn1 [Example 203] | –
22 | 0.07 µmol/L | 0.53 µmol/L | 0.08 µmol/L | – | – | CN(C)c1ccc(/C=C/C(=O)Nc2cn(Cc3cccc(Cl)c3)cn2)cc1 [Example 63] | –
23 | – | – | – | – | – | CC(C)Oc1ccc(C(=O)Nc2cn(Cc3cccc(Cl)c3)cn2)cc1 [Example 140] | viability at 1 µM (HT-29 cells; Homo sapiens): 83%; viability at 1 µM (HCT-116 cells; Homo sapiens): 31.4%; viability at 1 µM (FaDu cells; Homo sapiens): 81.8%
24 | – | – | – | 0.89 µmol/L | 5.87 µmol/L | COCCOc1cc(/C=C/C(=O)Nc2cn(Cc3cccc(Cl)c3)cn2)ccc1OC [Example 29, (E)-N-(1-(3-Chlorobenzyl)-1H-imidazol-4-yl)-3-(4-methoxy-3-(2-methoxyethoxy)phenyl)acrylamide] | IC50 (FaDu cells; Homo sapiens): 0.76 µmol/L
25 | 4.95 µmol/L | 4.24 µmol/L | 6.45 µmol/L | – | – | COc1ccc(C(=O)Nc2cn(Cc3cccc(C(F)(F)F)c3)cn2)cn1 [Example 209] | –
26 | – | – | – | – | – | COCCOc1ccc(C(=O)Nc2cn(Cc3cccc(Cl)c3)cn2)cc1 [Example 265, N-[1-(3-Chlorobenzyl)-1H-imidazol-4-yl]-4-(2-methoxyethoxy)benzamide] | viability at 1 µM (HT-29 cells; Homo sapiens): 33.1%; viability at 1 µM (HCT-116 cells; Homo sapiens): 41.7%; viability at 1 µM (FaDu cells; Homo sapiens): 41.2%
27 | 1.2 µmol/L | 0.96 µmol/L | 3.77 µmol/L | – | – | O=C(/C=C/c1ccccc1C(F)(F)F)Nc1cn(Cc2cccc(Cl)c2)cn1 [Example 55] | –
28 | 0.83 µmol/L | 0.88 µmol/L | 0.91 µmol/L | – | – | O=C(/C=C/c1ccoc1)Nc1cn(Cc2cccc(Cl)c2)cn1 [Example 88] | –
29 | – | – | – | 8.19 µmol/L | > 10 µmol/L | O=C(Nc1cn(Cc2cccc(C(F)(F)F)c2)cn1)c1ccccc1CO [Example 250, 2-(Hydroxymethyl)-N-{1-[3-(trifluoromethyl)benzyl]-1H-imidazol-4-yl}benzamide] | –
30 | 6.45 µmol/L | > 10 µmol/L | – | – | – | COc1ccc(NC(=O)c2cn(Cc3cc(F)c(F)c(F)c3)cn2)cn1 [Example 254] | –
31 | 8.49 µmol/L | > 10 µmol/L | – | – | – | COc1ccc(NC(=O)c2cn(Cc3cccc(Cl)c3)cn2)cn1 [Example 263] | –
32 | 4.64 µmol/L | 4.94 µmol/L | – | – | – | COc1ccc(C(=O)Nc2cn(Cc3cccc(Cl)c3)cn2)c(OC)n1 [Example 189] | –
33 | 2.84 µmol/L | 6.05 µmol/L | – | – | – | O=C(Nc1cn(Cc2cccc(C(F)(F)F)c2)cn1)c1cc2cnccc2s1 [Example 194] | –
34 | 5.6 µmol/L | > 10 µmol/L | – | – | – | O=C(Nc1cn(Cc2cccc(C(F)(F)F)c2)cn1)c1cccnn1 [Example 182] | –
35 | – | – | – | 6.36 µmol/L | 6.72 µmol/L | O=C(Nc1cn(Cc2cccc(C(F)(F)F)c2)cn1)c1ccc(-c2ccc(CO)nc2)cc1 [Example 246, 4-[6-(Hydroxymethyl)pyridin-3-yl]-N-{-[3-(trifluoromethyl)benzyl]-1H-imidazol-4-yl}benzamide] | –
36 | – | – | – | 5.46 µmol/L | 4.35 µmol/L | COc1ccc(OC)c(/C=C/C(=O)Nc2cn(Cc3cccc(C(F)(F)F)c3)cn2)c1 [Example 233] | –
37 | – | – | – | 2.52 µmol/L | 6.12 µmol/L | C=Cc1ncc(C(=O)Nc2cn(Cc3cccc(C(F)(F)F)c3)cn2)cc1F [Example 99, 6-Ethenyl-5-fluoro-N-{1-[3-(trifluoromethyl)benzyl]-1H-imidazol-4-yl}nicotinamide] | –
38 | 8.13 µmol/L | 9.6 µmol/L | – | – | – | O=C(Nc1cn(Cc2cccc(C(F)(F)F)c2)cn1)c1cc2ccccc2cn1 [Example 178] | –
